Results from BindingDB's records for doi:10.1016/j.bmc.2013.10.054 (Punjabi University, 2014).

Biological target: T1, P2X purinoceptor 7 (Homo sapiens, UniProt Q99572)
T1 sequence (Q99572 whole entry): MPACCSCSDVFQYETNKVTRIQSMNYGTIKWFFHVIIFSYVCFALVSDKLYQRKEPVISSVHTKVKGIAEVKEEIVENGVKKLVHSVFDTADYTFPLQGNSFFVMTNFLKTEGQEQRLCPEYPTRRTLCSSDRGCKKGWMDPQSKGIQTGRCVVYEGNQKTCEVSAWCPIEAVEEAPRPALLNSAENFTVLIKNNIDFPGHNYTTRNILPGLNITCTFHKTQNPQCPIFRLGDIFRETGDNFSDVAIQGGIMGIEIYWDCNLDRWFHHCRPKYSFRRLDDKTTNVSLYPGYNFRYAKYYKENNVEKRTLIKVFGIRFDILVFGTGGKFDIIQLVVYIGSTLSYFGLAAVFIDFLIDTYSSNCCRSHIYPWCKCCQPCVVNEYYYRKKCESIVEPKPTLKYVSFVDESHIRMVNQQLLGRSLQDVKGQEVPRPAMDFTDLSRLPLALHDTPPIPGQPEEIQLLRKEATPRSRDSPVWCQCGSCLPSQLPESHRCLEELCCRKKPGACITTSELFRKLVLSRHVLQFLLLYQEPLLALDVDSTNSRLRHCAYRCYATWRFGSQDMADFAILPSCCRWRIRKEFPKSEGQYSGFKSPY
Assay: Antagonist activity at P2X7 receptor (unknown origin)

IC50: < 1000 nM
SMILES: O=C(Cn1cc(O)n(-c2ccccc2)c1=O)NCc1ccc(F)cc1Cl
